The record followed here is US20250319056A1, “METHODS FOR TREATING CANCER” (THE TRUSTEES OF INDIANA UNIVERSITY, priority 2024, published 2025).

The term pEC50 denotes the negative decadic logarithm of the EC50, by convention in mol/L. For orientation: CC50 means the concentration at which the toxic effect on the cells reaches its halfway point. As usually defined, the GI50 is the concentration that inhibits growth by half. Lower therefore signals more potent growth inhibition.

pEC50, pIC50: −log10 of the molar value.

The test system of one data set is HCT-116 cells. The experiment in a line: AlamarBlue cell viability assay, HCT-116 colon cancer cells. Type of data set: cell-based, human. The note with it: for Average Selectivity Index: CC50 non-cancer cells (FHC, FHs 74Int) compared to EC50 HCT-116; for pEC50: Homo sapiens, HCT-116, 48 h, AlamarBlue, 48 h with compound, read-out: Human Cell Viability EC50 Colon Cancer (HCT 116).

The next data set concerns DLD-1 cells. The experiment in a line: AlamarBlue cell viability assay, DLD-1 colon cancer cells. The data set is classed as cell-based. The note with it: Homo sapiens, 48 h with compound, ^BP = curve baseline plateaued between ~10-20%, read-out: Human Cell Viability EC50 Colon Cancer (DLD1). For orientation: Resazurin is reduced to fluorescent resorufin, in cell work by metabolically active cells.

Another data set deals with HT-29 cells. Nature of the data set: AlamarBlue cell viability assay, HT-29 colon cancer cells. The note with it: Homo sapiens, 48 h with compound, ^BP = curve baseline plateaued between ~10-20%. Type of data set: cell-based.
A further data set addresses T1, mHSP60/10 (Homo sapiens, UniProt P10809).
T1 construct: Processed human HSP60 (mHSP60—that would be in mitochondria) was expressed in Rosetta™ 2 (DE3) E. coli; octa-Histidine tag (TEV-cleavable) (N, cleaved yes); made in house; host or cells: E. coli Rosetta 2 (DE3) for mHSP60; Rosetta 2 (DE3) pLysS for HSP10
Nature of the data set: mHSP60/10-mediated dMDH refolding assay. The data set is classed as biochemical. The note with it: denatured malate dehydrogenase client; read-out: IC50 mHSP60/10-dMDH refolding.

In a further data set the target is T2, GroEL/ES (Escherichia coli, UniProt P0A6F5).
T2 construct: made in house; host or cells: NEB 5-alpha E. coli for GroEL; E. coli BL21 (DE3) for GroES
The experiment in a line: GroEL/ES-dMDH refolding assay. The data set is classed as biochemical, E. coli.

Data set [1] in a line: AlamarBlue cell viability assay, non-cancerous colon FHC cells. The note with it: human, FHC non-cancerous colon cells, Human Cell Viability CC50 Colon (FHC), non-cancerous colon cells, AlamarBlue, 48 h.
The next data set relates to FHC cells. Described as above. The note with it: read-out: Human Cell Viability CC50 Colon (FHC); non-cancerous colon cells, AlamarBlue, 48 h.
Data set [2] is described as follows: AlamarBlue cell viability assay, non-cancerous intestine FHs-74Int cells. The note with it: human, FHs-74Int non-cancerous intestine cells, Human Cell Viability CC50 Intestine (FHs 74Int), non-cancerous intestine cells, AlamarBlue, 48 h.
In another data set the test system is FHs-74Int cells. The description is as above. The note with it: read-out: Human Cell Viability CC50 Intestine (FHs 74Int); non-cancerous intestine cells, AlamarBlue, 48 h.
For data set [3], the system named is NCI-60 cancer cell panel. Nature of the data set: NCI-60 panel single-dose cell growth screen. The data set is classed as cell-based. The note with it: single dose 10 μM; 0 = cytostatic, -100% = cytocidal, +100% = growth. On the procedure: FIGS. 10A-10J show cell growth results for 10 lead candidate inhibitors (compound 162, FIG. 10A; compound 163, FIG. 10B; compound 164, FIG. 10C; compound 4, FIG. 10D; compound 165, FIG. 10E; compound 139, FIG. 10F; compound 132, FIG. 10G; compound 143, FIG. 10H; compound 147, FIG. 10I; compound 128, FIG. 10J) tested at 10 μM against the NCI cancer cell panel. Zero indicates no cells growth/death from what was initially plated (cytostatic inhibition). −100% indicates […] (cytocidal inhibition). +100% indicates cell growth.
In a previous study evaluating the anti-cancer effects of ABK inhibitors, the National Cancer Institute (NCI) database was explored for existing cytotoxicity results for any compounds bearing α,β-unsaturated ketone moieties against the comprehensive NCI-60 cancer cell panel. […] The HQ-NAH and NF-NAH inhibitor library was explored based on the similarity to Nifuroxazide's scaffold. […] Initial screening was performed at a single concentration of 10 μM, and cell growth results are presented in aggregate based on cancer cell origin (FIGS. 10A-10J).

The subject of data set [4] is NCI-60 cancer cell panel. Nature of the data set: NCI-60 panel dose-response cell growth testing. The data set is classed as cell-based. The note with it: follow-up dose response, range across NCI-60 cell lines. An excerpt: FIGS. 11A-11G show cell growth results in dose-response for 7 lead candidate inhibitors (compound 162, FIG. 11A; compound 164, FIG. 11B; compound 128, FIG. 11C compound 165, FIG. 11D; compound 139, FIG. 11E; compound 143, FIG. 11F; compound 147, FIG. 11G) from initial single-dose NCI-60 screen.
Therefore, they appeared to act in a cytocidal manner.

T1 sequence (P10809 27-573): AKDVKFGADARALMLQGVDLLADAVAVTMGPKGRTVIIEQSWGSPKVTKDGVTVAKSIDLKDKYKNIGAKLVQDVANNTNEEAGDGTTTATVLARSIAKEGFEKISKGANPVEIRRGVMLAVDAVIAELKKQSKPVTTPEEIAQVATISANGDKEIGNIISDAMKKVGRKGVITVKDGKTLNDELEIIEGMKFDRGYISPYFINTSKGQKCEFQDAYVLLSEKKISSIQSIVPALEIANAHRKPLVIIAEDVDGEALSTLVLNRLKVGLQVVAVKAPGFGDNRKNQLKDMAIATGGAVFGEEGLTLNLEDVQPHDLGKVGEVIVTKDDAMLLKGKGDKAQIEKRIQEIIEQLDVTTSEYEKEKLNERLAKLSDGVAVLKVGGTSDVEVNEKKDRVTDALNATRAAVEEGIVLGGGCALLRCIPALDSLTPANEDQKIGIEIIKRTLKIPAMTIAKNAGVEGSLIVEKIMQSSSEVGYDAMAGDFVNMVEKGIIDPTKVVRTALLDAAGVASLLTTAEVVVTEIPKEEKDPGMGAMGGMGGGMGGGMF
T2 sequence (P0A6F5 2-548): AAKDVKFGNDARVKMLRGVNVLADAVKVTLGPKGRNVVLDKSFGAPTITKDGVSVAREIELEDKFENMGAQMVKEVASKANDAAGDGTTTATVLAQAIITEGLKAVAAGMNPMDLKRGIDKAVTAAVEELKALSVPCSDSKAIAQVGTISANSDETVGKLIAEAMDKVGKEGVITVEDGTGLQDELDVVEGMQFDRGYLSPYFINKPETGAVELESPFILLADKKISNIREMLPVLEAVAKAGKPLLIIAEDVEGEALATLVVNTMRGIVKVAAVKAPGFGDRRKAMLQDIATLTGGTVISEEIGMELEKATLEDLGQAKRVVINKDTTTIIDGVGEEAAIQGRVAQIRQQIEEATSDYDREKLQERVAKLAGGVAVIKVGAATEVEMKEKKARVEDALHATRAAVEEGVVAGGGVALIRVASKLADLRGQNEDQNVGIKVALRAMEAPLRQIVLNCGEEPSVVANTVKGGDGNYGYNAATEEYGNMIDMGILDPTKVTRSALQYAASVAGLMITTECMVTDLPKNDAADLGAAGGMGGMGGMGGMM

`COc1ccc(C(=O)N/N=C/c2ccc(O)c3ncccc23)cc1` [Compound 18, N′-((8-hydroxyquinolin-5-yl)methylene)-4-methoxybenzohydrazide]: the “Average Selectivity Index” value with HCT-116 cells is given as 5.3. Also, the negative-log EC50 (pEC50) in the data set on HCT-116 cells was 5.11; with DLD-1 cells, 5.42; in the data set with HT-29 cells it was 5.46. For the same compound, the pIC50 on mHSP60/10 and at GroEL/ES was 5.05 to 6.10 each time. In addition, the 50% cytotoxic concentration (CC50) at 48 h came out at 28.4 µM in data set [1] and 54.9 µM in [2]. Besides, the CC50 in the data set with FHC cells stood at 28 µM; with FHs-74Int cells, 55 µM.
With `O=C(N/N=C/c1ccc(O)c2ncccc12)c1cccc(Oc2ccccc2)c1` [Compound 143, N′-((8-hydroxyquinolin-5-yl)methylene)-3-phenoxybenzohydrazide], in the data set with HCT-116 cells, the “Average Selectivity Index” value came out at 4.8 and the pEC50 is 5.19. For the same compound, the “cell growth % NCI cancer cell panel” value with NCI-60 cancer cell panel [3] is given as “negative % growth”. In the data set with NCI-60 cancer cell panel [4], this compound gave a 50% growth inhibitory concentration (GI50) of 0.2 to 0.4 µM. In data set [1], this compound returned a CC50 at 48 h of 41 µM. Moreover, it took 21 µM to reach half-maximal cytotoxicity in [2] (CC50 at 48 h).
With `O=C(N/N=C/c1ccc([N+](=O)[O-])o1)c1cccc(Oc2ccccc2)c1` [Compound 128, N′-((5-nitrofuran-2-yl)methylene)-3-phenoxybenzohydrazide], in the data set on HCT-116 cells, the “Average Selectivity Index” value was determined as 17.4. Moreover, the pEC50 was 5.46 with HCT-116 cells, 5.14 in the data set with DLD-1 cells and 5.80 in the data set on HT-29 cells. The “cell growth % NCI cancer cell panel” value with NCI-60 cancer cell panel [3] was “a range of positive, negative, and zero growth”. The concentration for 50% growth inhibition (GI50) in the data set on NCI-60 cancer cell panel [4] lay within 1 to 31 µM. Besides, the results for the CC50 at 48 h in data set [1] and in [2] were 61 µM and 60 µM, respectively.
On to `CCOc1ccc(S(=O)(=O)Nc2ccc(C(=O)N/N=C/c3ccc(O)c4ncccc34)cc2)cc1` [Compound 147, 4-ethoxy-N-(4-(2-((8-hydroxyquinolin-5-yl)methylene)hydrazine-1-carbonyl)phenyl)benzenesulfonamide], for which the “Average Selectivity Index” value in the data set on HCT-116 cells turned out to be 25. The pEC50 with HCT-116 cells was 5.74; in the data set on DLD-1 cells it was 5.21; with HT-29 cells, 5.54. The “cell growth % NCI cancer cell panel” value in the data set on NCI-60 cancer cell panel [3] is given as “negative % growth”. Also, the GI50 in the data set with NCI-60 cancer cell panel [4] lay in the range of 0.2 to 0.4 µM. For the same compound, the CC50 at 48 h came out at 52 µM in data set [1] and 40 µM in data set [2].
Consider `O=C(Nc1ccc(Sc2nc3ccccc3s2)c(Cl)c1)c1cc(Br)ccc1O` [Compound 165, N-(4-(Benzo[d]thiazol-2-ylthio)-3-chlorophenyl)-5-bromo-2-hydroxybenzamide], for which, in the data set on NCI-60 cancer cell panel [3], the “cell growth % NCI cancer cell panel” value was “negative % growth”. In the data set on NCI-60 cancer cell panel [4], this compound came in with a GI50 of 1 to 5 µM.
On to `O=C(N/N=C/c1ccc(O)c2ncccc12)c1ccc(O)cc1` [Compound 139, 4-hydroxy-N′-((8-hydroxyquinolin-5-yl)methylene)benzohydrazide], for which the “Average Selectivity Index” value in the data set on HCT-116 cells stood at 11. Also, the negative logarithm of the EC50 (pEC50) in the data set on HCT-116 cells was 5.13; with DLD-1 cells, 4.72; in the data set with HT-29 cells, 5.20. For the same compound, in the data set on NCI-60 cancer cell panel [3], the “cell growth % NCI cancer cell panel” value is listed as “around 0%”. In the data set with NCI-60 cancer cell panel [4], this compound came in with a GI50 of 1 to 5 µM. Moreover, the figures for the CC50 at 48 h in [1] and in data set [2] were over 100 µM and 56 µM, respectively.
